# Source: PMC9386806 (ACS Omega, 2022)
# Molecular target: hCA II (Homo sapiens, UniProt P00918)
# Experiment: biochemical
row,Compound,IC50 [µM]
1,"COC(=O)C1=C(N)Oc2c(c(=O)oc3cc(O)ccc23)C1c1ccccc1OCc1cc2ccccc2oc1=O (stereo not shown) [Compound 12i, 2-Amino-8-hydroxy-5-oxo-4-[2-(2-oxo-2H-chromen-3-ylmethoxy)-phenyl]-4H,5H-pyrano[3,2-c]chromene-3-carboxylic Acid Methyl Ester]",4.91 ± 1.13
2,"COC(=O)C1=C(N)Oc2c(c(=O)oc3ccc(C)cc23)C1c1ccccc1OCc1cc2ccccc2oc1=O (stereo not shown) [Compound 12e, 2-Amino-9-methyl-5-oxo-4-[2-(2-oxo-2H-chromen-3-ylmethoxy)-phenyl]-4H,5H-pyrano[3,2-c]chromene-3-carboxylic Acid Methyl Ester]",21.8 ± 3.32
3,"CCOC(=O)C1=C(N)Oc2c(c(=O)oc3cc(O)ccc23)C1c1ccccc1OCc1cc2ccccc2oc1=O (stereo not shown) [Compound 12j, 2-Amino-8-hydroxy-5-oxo-4-[2-(2-oxo-2H-chromen-3-ylmethoxy)-phenyl]-4H,5H-pyrano[3,2-c]chromene-3-carboxylic Acid Ethyl Ester]",7.78 ± 0.08
4,"N#CC1=C(N)Oc2c(c(=O)oc3cc(O)ccc23)C1c1ccccc1OCc1cc2ccccc2oc1=O (stereo not shown) [Compound 12h, 2-Amino-8-hydroxy-5-oxo-4-[2-(2-oxo-2H-chromen-3-ylmethoxy)-phenyl]-4H,5H-pyrano[3,2-c]chromene-3-carbonitrile]",4.55 ± 0.22
